Experimental data from EPA's ToxRefDB 2.

How the values were obtained:
[1] = tested on: primate; settings: Sub-acute repeat dose toxicity; Oral; Gavage/Intubation; dose end: 5 day; group: systemic; systemic / clinical chemistry / [other] / [other] + systemic / clinical chemistry / plasma renin activity / plasma renin activity + systemic…
[2] = tested on: rat; settings: Sub-acute repeat dose toxicity; wistar; Oral; Gavage/Intubation; dose end: 14 day; group: systemic; systemic / in life observation / clinical signs / abnormal feces + systemic / in life observation / clinical signs / erythema + systemic / …
[3] = tested on: rat; settings: Sub-acute repeat dose toxicity, wistar, Oral, Gavage/Intubation, dose end: 28 day, group: systemic
[4] = tested on: dog; settings: Sub-acute repeat dose toxicity, beagle, Oral, Gavage/Intubation, dose end: 28 day, group: systemic
[5] = tested on: rabbit; settings: Sub-acute repeat dose toxicity, Oral, Gavage/Intubation, dose end: 13 day
[6] = tested on: rat; settings: Sub-acute repeat dose toxicity, wistar, Oral, Gavage/Intubation, dose end: 14 day, group: systemic
[7] = tested on: rat; settings: Sub-acute repeat dose toxicity, wistar, Oral, Gavage/Intubation, dose end: 14 day, group: systemic; remark: listed apart in the source
[8] = tested on: primate; settings: Sub-acute repeat dose toxicity, Oral, Gavage/Intubation, dose end: 28 day, group: systemic
[9] = tested on: primate; settings: Sub-acute repeat dose toxicity, Oral, Gavage/Intubation, dose end: 14 day, group: systemic
[10] = tested on: rat; settings: Subchronic oral toxicity in rodents, sprague dawley, Feed, dose end: 13 week, group: systemic
[11] = tested on: mouse; settings: Carcinogenicity; cd1; Oral; Feed; dose end: 78 week; group: systemic; systemic / organ weight / spleen / nos
[12] = tested on: dog; settings: Subchronic oral toxicity in nonrodent, beagle, Feed, dose end: 13 week, group: systemic
[13] = tested on: rat; settings: Multigenerational reproductive toxicity study, wistar, Oral, Feed, dose end: 2 generation
[14] = tested on: mouse; settings: Subchronic oral toxicity in rodents, cd1, Feed, dose end: 90 day, group: systemic, systemic / in life observation / body weight / body weight + systemic / in life observation / body weight / body weight gain
[15] = tested on: rat; settings: Combined chronic toxicity/carcinogenicity, Oral, Feed, dose end: 104 week, group: systemic
[16] = tested on: dog; settings: Chronic toxicity, beagle, Oral, [Not Specified], dose end: 52 week, group: systemic
[17] = systemic / in life observation / clinical signs / nasal discharge + systemic / in life observation / clinical signs / urine staining - …
[18] = systemic / clinical chemistry / alanine aminotransferase (alt/sgpt) / alanine aminotransferase (alt/sgpt) + systemic / clinical chemistry / …
[19] = systemic / in life observation / body weight / body weight + systemic / pathology microscopic / kidney / atrophy + systemic / pathology …
[20] = group: maternal, reproductive / reproductive performance / aborted / aborted + reproductive / reproductive performance / resorptions / resorptions
[21] = group: systemic, systemic / in life observation / body weight / body weight gain
[22] = group: systemic, systemic / in life observation / body weight / body weight gain + systemic / in life observation / body weight / body weight + systemic / in…
[23] = systemic / in life observation / clinical signs / abnormal feces + systemic / in life observation / clinical signs / salivation + systemic…
[24] = systemic / in life observation / clinical signs / abnormal feces + systemic / in life observation / clinical signs / body cold to touch + …
[25] = systemic / in life observation / clinical signs / body cold to touch + systemic / in life observation / clinical signs / dehydration + …
[26] = systemic / in life observation / clinical signs / abnormal feces + systemic / in life observation / clinical signs / dialated pupils + …
[27] = systemic / clinical chemistry / [other] / [other] + systemic / clinical chemistry / creatinine / creatinine + systemic / in life observation…
[28] = systemic / in life observation / body weight / body weight gain + systemic / in life observation / clinical signs / abnormal feces + …
[29] = systemic / pathology microscopic / adrenal gland / vacuolization + systemic / clinical chemistry / cholesterol / cholesterol + systemic / …
[30] = systemic / in life observation / body weight / body weight + systemic / in life observation / body weight / body weight gain
[31] = systemic / in life observation / body weight / body weight + systemic / in life observation / body weight / body weight gain + systemic / …
[32] = group: offspring, systemic / in life observation / clinical signs / grip strength
[33] = group: offspring, systemic / in life observation / clinical signs / grip strength + systemic / in life observation / body weight / offspring (pup) weight + …
[34] = group: parental, systemic / in life observation / body weight / body weight gain + systemic / in life observation / food consumption / food consumption + …
[35] = group: reproductive, reproductive / reproductive performance / estrous cycle / length
[36] = systemic / organ weight / thymus / nos
[37] = systemic / organ weight / thymus / nos + systemic / hematology / platelet / platelet + systemic / organ weight / testes / nos

## Cc1cc(SC2=C(O)C[C@@](CCc3ccc(N)cc3)(C(C)C)OC2=O)c(C(C)(C)C)cc1CO [CI-1029]
[1]
  LEL: 750 mg/kg/day
  LOAEL: > 750 mg/kg/day
  NEL: < 750 mg/kg/day
  NOAEL: ≥ 750 mg/kg/day
[2]
  LEL: 2500 mg/kg/day
  LOAEL: > 5000 mg/kg/day
  NEL: 1000 mg/kg/day
  NOAEL: ≥ 5000 mg/kg/day
[3]; [17]
  LOAEL: > 1000 mg/kg/day
  NEL: 100 mg/kg/day
  NOAEL: ≥ 1000 mg/kg/day
[3]; systemic / in life observation / clinical signs / urine staining - perineum + systemic / in life observation / body weight / body weight …
  LEL: 500 mg/kg/day
[4]; [18]
  LOAEL: > 500 mg/kg/day
  NOAEL: ≥ 500 mg/kg/day
[4]; [19]
  LEL: 100 mg/kg/day
  NEL: < 100 mg/kg/day
[5]; [20]
  LEL: 250 mg/kg/day
  LOAEL: > 500 mg/kg/day
  NEL: 100 mg/kg/day
  NOAEL: ≥ 500 mg/kg/day
[5]; [21]
  LEL: 50 mg/kg/day
  NEL: < 50 mg/kg/day
[5]; [22]
  LOAEL: > 500 mg/kg/day
  NOAEL: ≥ 500 mg/kg/day
[6]; [23]
  LOAEL: > 1000 mg/kg/day
  NEL: 250 mg/kg/day
  NOAEL: ≥ 1000 mg/kg/day
[6]; systemic / in life observation / clinical signs / urine staining - perineum
  LEL: 500 mg/kg/day
[7]; [24]
  LOAEL: > 5000 mg/kg/day
  NOAEL: ≥ 5000 mg/kg/day
[7]; [25]
  LEL: 500 mg/kg/day
  NEL: < 500 mg/kg/day
[8]; systemic / in life observation / body weight / body weight + systemic / in life observation / clinical signs / abnormal feces + systemic / …
  LEL: 500 mg/kg/day
[8]; [26]
  LOAEL: > 750 mg/kg/day
  NOAEL: ≥ 750 mg/kg/day
[9]; [27]
  LOAEL: > 1000 mg/kg/day
  NOAEL: ≥ 1000 mg/kg/day
[9]; [28]
  LEL: 100 mg/kg/day
  NEL: < 100 mg/kg/day

## CNC(=N[N+](=O)[O-])NCC1CCOC1 (centres undefined) [Dinotefuran]
[10]; systemic / pathology microscopic / adrenal gland / vacuolization
  LOAEL: 336 mg/kg/day
[10]; [29]
  NEL: 34 mg/kg/day
  NOAEL: 34 mg/kg/day
[10]; systemic / pathology microscopic / adrenal gland / vacuolization + systemic / organ weight / liver / relative to body weight
  LEL: 336 mg/kg/day
[11]
  LEL: 3 mg/kg/day
  LOAEL: 3 mg/kg/day
  NEL: < 3 mg/kg/day
  NOAEL: < 3 mg/kg/day
[12]; [30]
  LOAEL: 58 mg/kg/day
  NOAEL: < 58 mg/kg/day
[12]; [31]
  LEL: 58 mg/kg/day
  NEL: < 58 mg/kg/day
[13]; [32]
  NEL: 269 mg/kg/day
  NOAEL: 269 mg/kg/day
[13]; [33]
  LEL: 935 mg/kg/day
  LOAEL: 935 mg/kg/day
[13]; [34]
  LEL: 822 mg/kg/day
  LOAEL: 822 mg/kg/day
  NEL: 241 mg/kg/day
  NOAEL: 241 mg/kg/day
[13]; [35]
  LEL: 907 mg/kg/day
  LOAEL: 907 mg/kg/day
  NEL: 268 mg/kg/day
  NOAEL: 268 mg/kg/day
[14]
  LEL: 10600 mg/kg/day
  LOAEL: 10600 mg/kg/day
  NEL: 4440 mg/kg/day
  NOAEL: 4440 mg/kg/day
[15]; systemic / organ weight / uterus / relative to brain weight + systemic / organ weight / brain / relative to body weight + systemic / organ …
  NEL: 1330 mg/kg/day
[15]; systemic / pathology microscopic / kidney / ulcer + systemic / pathology microscopic / kidney / dilatation
  LOAEL: 991 mg/kg/day
[15]; systemic / pathology microscopic / kidney / ulcer + systemic / pathology microscopic / kidney / dilatation + systemic / pathology …
  NOAEL: 99.7 mg/kg/day
[16]; [36]
  LOAEL: 20 mg/kg/day
  NOAEL: < 20 mg/kg/day
[16]; [37]
  LEL: 20 mg/kg/day
  NEL: < 20 mg/kg/day
